The values that follow are results of earlier work, collected in patent publication US20190144909A1, “METHODS OF MODULATING BCKDH” (NESTEC S.A., priority 2016, published 2019).

Series [1] has as its system branched-chain alpha-keto acid dehydrogenase kinase (BCKDH kinase).
For series [2], the system named is branched-chain alpha-keto acid dehydrogenase E1 A subunit (BCKDHA).
Series [3] has as its system branched-chain alpha-keto acid dehydrogenase E1 B subunit (BCKDHB).
In series [4] the test system is BCKDH kinase. As to conditions: Shimomura et al. (2006) J. Nutr. 136: 250S-253S.
[5] abbreviates: BCKDH kinase, Table 2, from Comparative Toxicogenomics Database.
The mark [6] stands for this setting: BCKDHA, Table 1b, from Comparative Toxicogenomics Database.
Setting [7] is: BCKDHB, Table 1a, from Comparative Toxicogenomics Database.

“Also recorded” adds a separate entry of the source. Like-named read-outs stand apart in the source and are kept apart here.

Regarding `OO` [Hydrogen Peroxide], the “Interaction Actions” value in series [1] (setting [5]) is recorded as “affects expression”.
As for `CC(C)(c1ccc(O)cc1)c1ccc(O)cc1` [Bisphenol A], the results for the “Interaction Actions” value in series [2] (setting [6]) and in series [1] (setting [5]) were “increases expression” and “affects expression”, respectively.
With `C=CC1(C)OC(=O)N(c2cc(Cl)cc(Cl)c2)C1=O` (stereo not shown) [Vinclozolin], the “Interaction Actions” value in series [2] (setting [6]) is given as “increases expression”.
Regarding `O=C(NN=C1CCCCC1)C(=O)NN=C1CCCCC1` [Cuprizone, reference compound], the “Interaction Actions” value in series [3] is given as “increases expression”.
In the case of `c1ccoc1` [Furan], the “Interaction Actions” value in series [2] was “affects binding”.
`C[C@@H]1Cc2c(Cl)cc(C(=O)N[C@@H](Cc3ccccc3)C(=O)O)c(O)c2C(=O)O1` [Ochratoxin A]: the “Interaction Actions” value in series [1] is recorded as “decreases expression”.
With `[Cu]` [Copper], in series [1], the “Interaction Actions” value is listed as “affects binding/; also recorded: decreases expression”.
Regarding `C/C=C(/C)C(=O)O[C@H]1C(C)=C2[C@H]([C@@H]1OC(=O)CCCCCCC)[C@@](C)(OC(C)=O)C[C@H](OC(=O)CCC)[C@@]1(O)[C@H]2OC(=O)[C@@]1(C)O` [Thapsigargin, reference compound], the “Interaction Actions” value in series [1] (setting [5]) is recorded as “decreases expression”.
Consider `Clc1cc2c(cc1Cl)Oc1cc(Cl)c(Cl)cc1O2`, for which the figures for the “Interaction Actions” value in series [2], in series [3] and in series [1] were “affects expression; also recorded: affects cotreatment/; also recorded: increases expression”, “affects expression” and “affects reaction/; also recorded: decreases expression; also recorded: affects expression”, respectively.
On to `[CH3][Hg][Cl]` [Methylmercuric chloride], for which the “Interaction Actions” value in series [2] and in series [3] was “increases expression” throughout.
As to `Cl.N` [Ammonium Chloride], the “Interaction Actions” value in series [2], in series [3] and in series [1] was “affects expression” in each case.
`CC12CC1(C)C(=O)N(c1cc(Cl)cc(Cl)c1)C2=O` (stereo not shown) [Procymidone]: the “Interaction Actions” value in series [1] (setting [5]) is listed as “decreases expression”.
As to `CCCC(CCC)C(=O)O` [Valproic Acid, reference compound], the “Interaction Actions” value in series [2] (setting [6]) is reported as “affects expression”; in series [3] (setting [7]) it was “affects expression; also recorded: increases expression”; in series [1] (setting [5]), “affects expression”.
For `CN[C@H](CC(C)C)C(=O)N[C@H]1C(=O)N[C@@H](CC(N)=O)C(=O)N[C@H]2C(=O)N[C@H]3C(=O)N[C@H](C(=O)N[C@H](C(=O)O)c4cc(O)cc(O)c4-c4cc3ccc4O)[C@H](O)c3ccc(c(Cl)c3)Oc3cc2cc(c3O[C@@H]2O[C@H](CO)[C@@H](O)[C@H](O)[C@H]2O[C@H]2C[C@](C)(N)[C@H](O)[C@H](C)O2)Oc2ccc(cc2Cl)[C@H]1O` [Vancomycin, reference compound], the “Interaction Actions” value in series [2] and in series [3] was “increases expression” each time.
As to `Cc1cccc(Nc2cc(Cl)nc(SCC(=O)O)n2)c1C` [pirinixic acid, reference compound], the “Interaction Actions” value in series [2] (setting [6]) and in series [3] (setting [7]) was “increases expression” in each case.
For `CC(C)CC(Cl)C(=O)O` (stereo not drawn) [α-chloroisocaproic acid], the “inhibitor of BCKDH kinase” value in series [4] is on record as “most potent known inhibitor of BCKDH kinase”.
On to `COCC(=O)O` [Methoxyacetic acid], for which the “Interaction Actions” value in series [1] (setting [5]) was “affects expression”.
With `CCCCOC(=O)c1ccccc1C(=O)OCCCC` [Dibutyl Phthalate], the “Interaction Actions” value in series [1] (setting [5]) is given as “decreases expression”.
In the case of `CC(C)(Oc1ccc(Cl)cc1)C(=O)O` [Clofibric Acid], the “Interaction Actions” value in series [1] (setting [5]) was “affects cotreatment/; also recorded: affects expression”.
`C#CC1(O)CC[C@H]2[C@@H]3C(O)C=C4CC(O)CC[C@]4(C)[C@H]3CC[C@@]21C` (stereo partly shown) [17-ethynyl-5-androstene-3,7,17-triol]: the “Interaction Actions” value in series [2] (setting [6]) is recorded as “affects binding”.
`c1cc2ccc3ccc4ccc5cccc6c(c1)c2c3c4c56` [1,12-benzoperylene]: the “Interaction Actions” value in series [2] is “increases expression”.
For the molecule Tunicamycin [reference compound], the “Interaction Actions” value in series [2] is reported as “increases expression”; in series [1], “decreases expression”.
For `CC(C)CC(=O)C(=O)O` [α-ketoisocaproic acid], in series [4], the “inhibitor of BCKDH kinase” value is recorded as “known physiological inhibitor of BCKDH kinase”.
`CC[C@@]1(O)C(=O)OCc2c1cc1n(c2=O)Cc2cc3c(CN(C)C)c(O)ccc3nc2-1` [Topotecan, reference compound]: the “Interaction Actions” value in series [2] (setting [6]) is reported as “affects response”.
Turning to `C=CC(=C)Cl` [Chloroprene], the “Interaction Actions” value in series [2] is reported as “increases expression”.
For `CCNc1nc(Cl)nc(NC(C)C)n1` [Atrazine], the “Interaction Actions” value in series [2] (setting [6]) was “increases expression”; in series [1] (setting [5]) it was “decreases expression”.
As to `CNC1(c2ccccc2Cl)CCCCC1=O` (stereo not shown) [Ketamine, reference compound], in series [2], the “Interaction Actions” value is listed as “increases expression”.
Take potassium chromate(VI): the “Interaction Actions” value in series [3] is listed as “increases expression”.
For `ClC(Cl)(Cl)Cl` [Carbon Tetrachloride], in series [2], the “Interaction Actions” value is reported as “increases expression”.
For `NC(=O)N1c2ccccc2C=Cc2ccccc21` [Carbamazepine, reference compound], in series [2] (setting [6]), the “Interaction Actions” value is reported as “affects expression”.
As for `[Cl-].[Cl-].[Co+2]` [Cobaltous chloride], the “Interaction Actions” value in series [1] was “decreases expression”.
As for `CC(=O)Nc1ccc(O)cc1` [Acetaminophen, reference compound], the “Interaction Actions” value in series [2] (setting [6]) is recorded as “affects expression; also recorded: increases expression”; in series [1] (setting [5]), “affects expression”.
For `c1ccc2c(c1)cc1ccc3cccc4ccc2c1c34` [Benzo(a)pyrene], in series [3] (setting [7]), the “Interaction Actions” value is “affects expression/; also recorded: affects reaction; also recorded: increases expression”.
With `OCl` [Hypochlorous Acid], the “Interaction Actions” value in series [1] (setting [5]) was “decreases expression”.
As for `O=c1[nH]cc(F)c(=O)[nH]1` [Fluorouracil, reference compound], the “Interaction Actions” value in series [2] (setting [6]) is reported as “affects expression”.
On to `[Na+].[Na+].[O]=[Cr](=[O])([O-])[O][Cr](=[O])(=[O])[O-]` [Sodium bichromate], for which the “Interaction Actions” value in series [1] is given as “decreases expression”.
As to `OC[C@H]1O[C@@H](Oc2ccc(O)cc2)[C@H](O)[C@@H](O)[C@@H]1O` [Arbutin], the “Interaction Actions” value in series [1] (setting [5]) is on record as “decreases expression”.
For `CCN(CC)N=O` [Diethylnitrosamine], the “Interaction Actions” value was “increases expression” in series [3] and “affects cotreatment/; also recorded: affects expression” in series [1].
